Data from patent US9206412B2, “Thioxothiazolidine inhibitors” (Colorado State University Research Foundation, priority 2012, dated 2015).
Read-outs that look alike come from different tables or passages of the source.

What was measured:
[1] = tested on: dengue type 2 virus subgenomic replicon (BHK-pD2hRucPac); experiment: Antiviral (replicon) assay, Renilla luciferase; format: cell-based
[2] = tested on: BHK-pD2hRucPac cells; experiment: Cell viability (CellTiter-Glo) in replicon assay; details: read-out: Replicon Assay_CC50_M; Table 2-1
[3] = target: T1, dengue virus capping enzyme (Dengue virus type 2, UniProt P29990); experiment: biochemical; format: binding, dengue virus type 2 (strain 16681); details: read-out: FP_DEN_Ki_AVG_DEN_M
T1 sequence (P29990 2492-2758): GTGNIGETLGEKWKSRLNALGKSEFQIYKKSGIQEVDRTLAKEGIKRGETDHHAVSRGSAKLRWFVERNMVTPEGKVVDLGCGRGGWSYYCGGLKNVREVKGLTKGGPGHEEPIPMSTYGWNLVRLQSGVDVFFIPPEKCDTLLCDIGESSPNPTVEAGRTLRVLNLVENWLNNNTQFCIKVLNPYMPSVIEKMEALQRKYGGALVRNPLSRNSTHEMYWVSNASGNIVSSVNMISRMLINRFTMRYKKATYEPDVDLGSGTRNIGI

[4] = target: yellow fever virus capping enzyme (Yellow fever virus, UniProt P03314); experiment: biochemical; format: binding, yellow fever virus (strain 17D); details: read-out: FP_YF_KI_AVG_YF_M
[5] = Cell viability (CellTiter-Glo) in replicon assay; details: hamster, BHK-pD2hRucPac cells (dengue replicon cells), Replicon CC50, text
[6] = target: T1, dengue virus capping enzyme; format: binding
[7] = Table 2-1, read-out: Replicon Assay_EC50_M

Chain of yellow fever virus capping enzyme (P03314 2507-2774 limits assumed): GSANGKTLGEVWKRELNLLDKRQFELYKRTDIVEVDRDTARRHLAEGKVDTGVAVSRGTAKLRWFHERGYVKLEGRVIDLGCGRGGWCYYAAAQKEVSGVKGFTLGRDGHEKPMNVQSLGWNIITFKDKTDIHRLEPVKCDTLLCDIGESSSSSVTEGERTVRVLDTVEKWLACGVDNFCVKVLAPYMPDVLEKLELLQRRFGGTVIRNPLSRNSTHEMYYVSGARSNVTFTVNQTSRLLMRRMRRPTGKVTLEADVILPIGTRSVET

Compound: Cc1cccc(/C=C2\SC(=S)N(CN3CCCCC3)C2=O)c1 [BG136]
- EC50 [1, 7]: 41 µM
- CC50 [2]: 49 µM
- Ki [3]: 16 µM
- Ki [4]: 27 µM

Compound: O=C(O)C(Cc1ccccc1)N1C(=O)C(=Cc2ccccc2Cl)SC1=S (racemic) [BG135]
- EC50 [1, 7]: 39 µM
- CC50 [2]: 44 µM
- Ki [3]: 4 µM
- Ki [4]: 5 µM

Compound: O=C(CCN1C(=O)C(=Cc2ccc(Cl)cc2)SC1=S)Nc1ccc(C(=O)O)cc1 [BG122]
- EC50 [1, 7]: 41 µM
- CC50 [2]: 58 µM
- Ki [3]: 3 µM
- Ki [4]: 5 µM

Compound: Cc1ccc(N2C(=O)/C(=C/c3ccccc3C(=O)O)SC2=S)c(C)c1 [BG130]
- EC50 [1, 7]: 61 µM
- CC50 [2]: 50 µM
- Ki [3]: 8 µM
- Ki [4]: 15 µM

Compound: NC(=O)c1ncn([C@@H]2O[C@H](CO)[C@@H](O)[C@H]2O)n1 [Ribavirin, reference compound]
- EC50 ([1]; Dengue virus, 72 h, read-out: Replicon EC50, 72 hours): 12 µM
- CC50 at 72 h [5]: 49 µM

Compound: O=C(O)CN1C(=O)/C(=C/c2ccc(Oc3ccccc3)cc2)SC1=S [BG-115]
- HTS Activity [6]: M (key: Weak (W)=50%-75% reduction in FP signal; Moderate (M)=76%-90% reduction; Strong (S)=>90% reduction)

Compound: O=C(CN1C(=O)/C(=C/c2ccccc2F)SC1=S)Nc1ccccc1C(=O)O [BG132]
- EC50 [1, 7]: 114 µM
- CC50 [2]: 50 µM
- Ki [3]: 3 µM
- Ki [4]: 3 µM

Compound: CCOc1cc(/C=C2\SC(=S)NC2=O)ccc1OS(=O)(=O)c1ccccc1[N+](=O)[O-] [BG169]
- EC50 [1, 7]: 26 µM
- CC50 [2]: 29 µM
- Ki [3]: 2 µM
- Ki [4]: 2 µM

Compound: CC(C)(C)c1cc(C=C2SC(=S)NC2=O)cc(C(C)(C)C)c1O [BG179]
- EC50 [1, 7]: 15 µM
- CC50 [2]: 20 µM
- Ki [3]: 2 µM
- Ki [4]: 1 µM

Compound: O=C(CN1C(=O)/C(=C/c2ccccc2F)SC1=S)Nc1cccc(C(=O)O)c1 [BG131]
- EC50 [1, 7]: 54 µM
- CC50 [2]: 71 µM
- Ki [3]: 6 µM
- Ki [4]: 12 µM

Compound: O=C(CN1C(=O)/C(=C/c2ccccc2Cl)SC1=S)Nc1ccccc1C(=O)O [BG100]
- EC50 [1, 7]: 37 µM
- CC50 [2]: 49 µM
- Ki [3]: 3 µM
- Ki [4]: 5 µM

Compound: O=C(O)CN1C(=O)/C(=C\c2ccc(-c3ccc(Cl)cc3Cl)o2)SC1=S [2044-5240]
- HTS Activity [6]: M (key: Weak (W)=50%-75% reduction in FP signal; Moderate (M)=76%-90% reduction; Strong (S)=>90% reduction)

Compound: O=C(O)CCN1C(=O)C(=Cc2ccc(-c3ccccc3[N+](=O)[O-])o2)SC1=S [BG139]
- EC50 [1, 7]: 51 µM
- CC50 [2]: 56 µM
- Ki [3]: 5 µM
- Ki [4]: 7 µM

Compound: Cc1cccc(N2C(=O)/C(=C/c3ccc(C(=O)O)cc3)SC2=S)c1C [BG128]
- EC50 [1, 7]: 45 µM
- CC50 [2]: 42 µM
- Ki [3]: 11 µM
- Ki [4]: 13 µM

Compound: COc1ccccc1C=C1SC(=S)N(C(Cc2ccccc2)C(=O)O)C1=O (racemic) [BG101]
- EC50 [1, 7]: 42 µM
- CC50 [2]: 46 µM
- Ki [3]: 9 µM
- Ki [4]: 8 µM

Compound: CC(=C1SC(=S)NC1=O)c1ccc(C)cc1 [BG137]
- EC50 [1, 7]: 55 µM
- CC50 [2]: 67 µM
- Ki [3]: 19 µM
- Ki [4]: 25 µM

Compound: CC(C)c1ccc(/C=C2\SC(=S)N(CC(=O)O)C2=O)cc1 [BG182]
- EC50 [1, 7]: 80 µM
- CC50 [2]: 93 µM
- Ki [3]: 18 µM
- Ki [4]: 17 µM

Compound: COc1c(I)cc(I)cc1/C=C1\SC(=S)N(CC(=O)O)C1=O [BG308]
- EC50 [1, 7]: 97 µM
- CC50 [2]: 276 µM
- Ki [3]: 2 µM
- Ki [4]: 4 µM

Compound: O=C1NC(=S)SC1=Cc1ccccc1OS(=O)(=O)c1ccc([N+](=O)[O-])cc1 [BG127]
- EC50 [1, 7]: 109 µM
- CC50 [2]: 40 µM
- Ki [3]: 5 µM
- Ki [4]: 6 µM

Compound: O=C(CN1C(=O)C(=Cc2ccccc2Cl)SC1=S)Nc1cccc(C(=O)O)c1 [BG123]
- EC50 [1, 7]: 75 µM
- CC50 [2]: 103 µM
- Ki [3]: 4 µM
- Ki [4]: 5 µM

Compound: CN1C(=O)S/C(=C\c2ccc(-c3ccc(C(=O)O)c(Cl)c3)o2)C1=O [BG175]
- EC50 [1, 7]: 78 µM
- CC50 [2]: 82 µM
- Ki [3]: 13 µM
- Ki [4]: 17 µM

Compound: O=C(CCN1C(=O)C(=Cc2ccc(Cl)cc2)SC1=S)Nc1ccccc1C(=O)O [BG120]
- EC50 [1, 7]: 23 µM
- CC50 [2]: 31 µM
- Ki [3]: 2 µM
- Ki [4]: 2 µM

Compound: O=C(O)CN1C(=O)/C(=C/c2ccc(OCc3ccccc3)cc2)SC1=S [BG-170]
- HTS Activity [6]: W (key: Weak (W)=50%-75% reduction in FP signal; Moderate (M)=76%-90% reduction; Strong (S)=>90% reduction)

Compound: COc1ccc2nc(N3CCCCC3)c(C=C3SC(=S)NC3=O)cc2c1 [BG168]
- EC50 [1, 7]: 13 µM
- CC50 [2]: 12 µM
- Ki [3]: 2 µM
- Ki [4]: 2 µM

Compound: CCOc1ccc(N2C(=O)C(=Cc3ccccc3C(=O)O)SC2=S)cc1 [BG126]
- EC50 [1, 7]: 52 µM
- CC50 [2]: 51 µM
- Ki [3]: 17 µM
- Ki [4]: 19 µM

Compound: O=C1NC(=S)SC1=Cc1cccc(Cl)c1Cl [BG333]
- EC50 [1, 7]: 9 µM
- CC50 [2]: 11 µM
- Ki [3]: 7 µM
- Ki [4]: 12 µM

Compound: C=CCOc1ccc(Cl)cc1/C=C1\SC(=S)NC1=O [BG114]
- EC50 [1, 7]: 23 µM
- CC50 [2]: 27 µM
- Ki [3]: 2 µM
- Ki [4]: 6 µM

Compound: COc1cc(/C=C2\SC(=O)N(Cc3ccc(F)cc3)C2=O)c(Br)cc1OCC(=O)O [BG163]
- EC50 [1, 7]: 32 µM
- CC50 [2]: 38 µM
- Ki [3]: 5 µM
- Ki [4]: 9 µM

Compound: O=C(CN1C(=O)S/C(=C\c2ccccc2F)C1=O)Nc1ccccc1C(=O)O [BG142]
- EC50 [1, 7]: 102 µM
- CC50 [2]: 137 µM
- Ki [3]: 23 µM
- Ki [4]: 51 µM

Compound: COc1c(I)cc(I)cc1/C=C1\SC(=S)N(CC(=O)O)C1=O [BG-5]
- HTS Activity [6]: S (key: Weak (W)=50%-75% reduction in FP signal; Moderate (M)=76%-90% reduction; Strong (S)=>90% reduction)

Compound: O=C(CCCN1C(=O)/C(=C/c2ccc(F)cc2)SC1=S)Nc1cccc(C(=O)O)c1 [BG124]
- EC50 [1, 7]: 80 µM
- CC50 [2]: 56 µM
- Ki [3]: 14 µM
- Ki [4]: 18 µM

Compound: O=C(CCN1C(=O)C(=Cc2ccc(Cl)cc2)SC1=S)Nc1cccc(C(=O)O)c1 [BG121]
- EC50 [1, 7]: 33 µM
- CC50 [2]: 39 µM
- Ki [3]: 3 µM
- Ki [4]: 5 µM

Compound: Cc1cc(C)cc(-n2c(C)cc(/C=C3\SC(=O)NC3=O)c2C)c1 [BG172]
- EC50 [1, 7]: 20 µM
- CC50 [2]: 26 µM
- Ki [3]: 11 µM
- Ki [4]: 14 µM

Compound: O=C(CN1C(=O)C(=Cc2ccccc2Cl)SC1=S)Nc1ccc(C(=O)O)cc1 [BG119]
- EC50 [1, 7]: 42 µM
- CC50 [2]: 58 µM
- Ki [3]: 4 µM
- Ki [4]: 5 µM

Compound: CC(C)N1C(=O)SC(=Cc2ccccc2OCc2ccc(C(=O)O)cc2)C1=O [BG166]
- EC50 [1, 7]: 28 µM
- CC50 [2]: 33 µM
- Ki [3]: 7 µM
- Ki [4]: 14 µM

Compound: CC(C)C(C(=O)O)N1C(=O)/C(=C/c2ccccc2Cl)SC1=S (stereo not drawn) [BG134]
- EC50 [1, 7]: 61 µM
- CC50 [2]: 66 µM
- Ki [3]: 15 µM
- Ki [4]: 15 µM

Compound: O=C1NC(=O)C(=Cc2ccc(Br)cc2)S1 [BG143]
- EC50 [1, 7]: 50 µM
- CC50 [2]: 60 µM
- Ki [3]: 20 µM
- Ki [4]: 24 µM

Compound: O=C(O)C(Cc1ccccc1)N1C(=O)C(=CC=Cc2ccccc2)SC1=S (stereo not drawn) [BG138]
- EC50 [1, 7]: 32 µM
- CC50 [2]: 33 µM
- Ki [3]: 3 µM
- Ki [4]: 4 µM
